# Source: ChEMBL document CHEMBL4257490, “Development of a peptide-based bifunctional chelator conjugated to a cytotoxic drug for the treatment of melanotic melanoma” (Medchemcomm, 2018)
# Calls of active or inactive are those of the source. The rule behind the calls is not given here. Residues, ends and D or L forms follow the SMILES beside them. *: point of attachment. X1 = O=c1nc(N*)ccn1[C@@H]1O[C@H](CO)[C@@H](O)C1(F)F
# Columns and labels:
# [1] = n-Octanol-phosphate buffer partition co-efficient, log P of 99mTc(CO)3-labeled compound at 2 to 3 KBq after 1 min by gamma scintillation counting method; type: physicochemical
# [2] = test system: B16-F10; experiment: Cytotoxicity against mouse B16F10 cells assessed as decrease in cell viability after 72 hrs by MTT assay; type: functional, cell-based; conditions: B16-F10, 72 h
# [3] = Drug uptake in gastrointestinal tract of Balb/c mouse allografted with mouse B16F10 cells using 99mTc(CO)3-labeled compound at 4 to 8 MBq, iv measured at 4 hrs by scintigraphic imaging method; type: ADME, organism-based; conditions: in vivo
# [4] = Drug uptake in stomach of Balb/c mouse allografted with mouse B16F10 cells using 99mTc(CO)3-labeled compound at 10 to 12 MBq/kg, iv measured at 2 hrs; type: ADME, organism-based; conditions: in vivo
# [5] = Ratio of drug level in tumor to blood of Balb/c mouse allografted with mouse B16F10 cells using 99mTc(CO)3-labeled compound at 10 to 12 MBq/kg, iv measured at 2 hrs; type: ADME, organism-based, Tumor/tissue
# [6] = Drug uptake in liver of Balb/c mouse allografted with mouse B16F10 cells using 99mTc(CO)3-labeled compound at 10 to 12 MBq/kg, iv measured at 2 hrs; type: ADME, organism-based; conditions: in vivo
# [7] = Drug degradation in histidine solution using 99mTc(CO)3-labeled compound after 24 hrs by TLC method; type: physicochemical; conditions: read-out: Drug degradation
# [8] = Hemolytic activity in rat erythrocytes at 100 uM after 1 hr relative to control; type: ADME, cell-based, Erythrocyte; conditions: read-out: Activity
# [9] = test system: B16-F10; experiment: Induction of apoptosis in mouse B16F10 cells assessed as necrotic cells at IC50 after 72 hrs by annexin V-FITC/propidium iodide staining-based flow cytometric method relative to control; type: functional
# [10] = test system: B16-F10; experiment: Antitumor activity against mouse B16F10 cells allografted in Balb/c mouse assessed as tumor growth inhibition at 25 mg/kg, iv administered thrice weekly for 21 days starting on day 10 post tumor implantation relative to control; type: functional; conditions: read-out: TGI
# [11] = Drug uptake in urine of Balb/c mouse allografted with mouse B16F10 cells using 99mTc(CO)3-labeled compound at 10 to 12 MBq/kg, iv measured at 4 hrs; type: ADME, organism-based; conditions: in vivo
# [12] = Drug uptake in mouse B16F10 cells using 99mTc(CO)3-labeled compound at 15 to 20 MBq/ml after 30 mins by gamma scintillation counting method relative to total added activity; type: ADME, cell-based; conditions: b16-f10, 0.5 h
# [13] = Drug uptake in intestine of Balb/c mouse allografted with mouse B16F10 cells using 99mTc(CO)3-labeled compound at 10 to 12 MBq/kg, iv measured at 4 hrs; type: ADME, organism-based; conditions: in vivo
# [14] = Drug uptake in tumor muscle of Balb/c mouse allografted with mouse B16F10 cells using 99mTc(CO)3-labeled compound at 10 to 12 MBq/kg, iv measured at 4 hrs; type: ADME, organism-based; conditions: in vivo
# [15] = Drug uptake in muscle of Balb/c mouse allografted with mouse B16F10 cells using 99mTc(CO)3-labeled compound at 10 to 12 MBq/kg, iv measured at 2 hrs; type: ADME, organism-based, Muscle tissue; conditions: in vivo
# [16] = Ratio of drug level in tumor to blood of Balb/c mouse allografted with mouse B16F10 cells using 99mTc(CO)3-labeled compound at 10 to 12 MBq/kg, iv measured at 4 hrs; type: ADME, organism-based, Tumor/tissue
# [17] = Metabolic stability in rat serum assessed as parent compound remaining using 99mTc(CO)3-labeled compound after 24 hrs by TLC method; type: ADME, cell-free; conditions: read-out: Stability
# [18] = Drug uptake in liver of Balb/c mouse allografted with mouse B16F10 cells using 99mTc(CO)3-labeled compound at 10 to 12 MBq/kg, iv measured at 4 hrs; type: ADME, organism-based; conditions: in vivo
# [19] = Ratio of drug level in tumor to muscle of Balb/c mouse allografted with mouse B16F10 cells using 99mTc(CO)3-labeled compound at 10 to 12 MBq/kg, iv measured at 2 hrs; type: ADME, organism-based, Tumor/tissue; conditions: in vivo
# [20] = Drug uptake in mouse B16F10 cells using 99mTc(CO)3-labeled compound at 15 to 20 MBq/ml after 240 mins by gamma scintillation counting method; type: ADME, cell-based; conditions: b16-f10, 4 h
# [21] = Stability in saline assessed as parent compond remaining using 99mTc(CO)3-labeled compound after 24 hrs by TLC method; type: physicochemical; conditions: read-out: Stability
# [22] = Drug uptake in tumor of Balb/c mouse allografted with mouse B16F10 cells using 99mTc(CO)3-labeled compound at 4 to 8 MBq, iv measured at 4 hrs by scintigraphic imaging method; type: ADME, organism-based, Neoplasm; conditions: in vivo
# [23] = test system: B16-F10; experiment: Induction of apoptosis in mouse B16F10 cells at IC50 after 72 hrs by annexin V-FITC/propidium iodide staining-based flow cytometric method relative to control; type: functional
# [24] = Drug uptake in tumor muscle of Balb/c mouse allografted with mouse B16F10 cells using 99mTc(CO)3-labeled compound at 10 to 12 MBq/kg, iv measured at 2 hrs; type: ADME, organism-based; conditions: in vivo
# [25] = test system: B16-F10; experiment: Induction of apoptosis in mouse B16F10 cells assessed as nuclear fragmentation at IC50 after 72 hrs by DAPI staining-based fluorescence microscopic method; type: functional, cell-based
# [26] = Drug uptake in kidney of Balb/c mouse allografted with mouse B16F10 cells using 99mTc(CO)3-labeled compound at 10 to 12 MBq/kg, iv measured at 2 hrs; type: ADME, organism-based; conditions: in vivo
# [27] = Drug uptake in heart of Balb/c mouse allografted with mouse B16F10 cells using 99mTc(CO)3-labeled compound at 10 to 12 MBq/kg, iv measured at 4 hrs; type: ADME, organism-based; conditions: in vivo
# [28] = Drug uptake in mouse B16F10 cells using 99mTc(CO)3-labeled compound at 15 to 20 MBq/ml after 30 mins by gamma scintillation counting method; type: ADME, cell-based; conditions: b16-f10, 0.5 h
# [29] = Drug uptake in urine of Balb/c mouse allografted with mouse B16F10 cells using 99mTc(CO)3-labeled compound at 10 to 12 MBq/kg, iv measured at 2 hrs; type: ADME, organism-based; conditions: in vivo
# [30] = test system: Mus musculus; experiment: Toxicity in mouse B16F10 cells allografted Balb/c mouse assessed as effect on body weight at 25 mg/kg, iv administered thrice weekly for 21 days starting on day 10 post tumor implantation (reference value: 30.52 +/- 2.9 g); type: organism-based; conditions: in vivo, 504 h
# [31] = Drug uptake in heart of Balb/c mouse allografted with mouse B16F10 cells using 99mTc(CO)3-labeled compound at 10 to 12 MBq/kg, iv measured at 2 hrs; type: ADME, organism-based; conditions: in vivo
# [32] = Drug uptake in blood of Balb/c mouse allografted with mouse B16F10 cells using 99mTc(CO)3-labeled compound at 10 to 12 MBq/kg, iv measured at 2 hrs; type: ADME, organism-based; conditions: in vivo
# [33] = Drug uptake in spleen of Balb/c mouse allografted with mouse B16F10 cells using 99mTc(CO)3-labeled compound at 10 to 12 MBq/kg, iv measured at 2 hrs; type: ADME, organism-based; conditions: in vivo
# [34] = Drug uptake in kidney of Balb/c mouse allografted with mouse B16F10 cells using 99mTc(CO)3-labeled compound at 10 to 12 MBq/kg, iv measured at 4 hrs; type: ADME, organism-based; conditions: in vivo
# [35] = Drug uptake in mouse B16F10 cells using 99mTc(CO)3-labeled compound at 15 to 20 MBq/ml after 240 mins by gamma scintillation counting method relative to total added activity; type: ADME, cell-based; conditions: b16-f10, 4 h
structure (smiles),measurement,setting,value
NCCCC[C@H](NC(=O)CNC(=O)[C@H](Cc1cnc[nH]1)NC(=O)[C@H](CCCCN)NC(=O)[C@H](Cc1ccc(O)cc1)NC(=O)[C@@H](N)Cc1cnc[nH]1)C(=O)N[C@@H](CC(=O)Nc1ccn([C@@H]2O[C@H](CO)[C@@H](O)C2(F)F)c(=O)n1)C(N)=O (H-HYKHGKD(X1)-NH2),logP at 1 min,[1],-0.629
same,IC50,[2],120 nM
same,Drug uptake,[3],Active
same,Drug uptake,[4],0.25 % ID/g
same,Kp at 2 h,[5],0.95
same,Drug uptake,[6],17.65 % ID/g
same,degraded at 24 h,[7],5%
same,"hemolysis at 1 h, 100 µM",[8],7 to 9%
same,Activity,[9],12 - 14%
same,inhibition in vivo at 25 mg/kg,[10],62%
same,Drug uptake,[11],48.21 %ID/ml
same,Drug uptake,[12],4.99%
same,Drug uptake,[13],6.28 % ID/g
same,Drug uptake,[14],2.81 % ID/g
same,Drug uptake,[15],0.17 % ID/g
same,Kp at 4 h,[16],1.77
same,remaining at 24 h,[17],≥ 92%
same,Drug uptake,[18],15.62 % ID/g
same,Ratio,[19],10.64
same,Drug uptake,[20],80%
same,remaining at 24 h,[21],≥ 92%
same,Drug uptake,[22],Active
same,Activity,[23],61%
same,Drug uptake,[24],1.71 % ID/g
same,Activity,[25],Active
same,Drug uptake,[26],18.96 % ID/g
same,Drug uptake,[27],0.04 % ID/g
same,Drug uptake,[28],42.34%
same,Drug uptake,[29],41.21 %ID/ml
same,Activity,[30],25.15 g
same,Drug uptake,[31],0.06 % ID/g
same,Drug uptake,[32],1.79 %ID/ml
same,Drug uptake,[33],0.69 % ID/g
same,Drug uptake,[34],16.25 % ID/g
same,Drug uptake,[35],9.87%
